experiment: in vitro; conditions: human, hela cells, % viability

Row | Structure (SMILES) | viability at 28.5 h, 10 µM [%]
1 | Cc1cccc(CN2CCC(NC(=O)Cn3cc(Br)ccc3=O)CC2)c1 [CBK305669] | 80
2 | O=C(Cn1cc(Br)ccc1=O)NC1CCN(Cc2ccccc2)CC1 [CBK305671] | 95.6
3 | CCCNC(=O)CN(C)Cc1nc(-c2cccc(C(F)(F)F)c2)no1 [CBK305672] | 103
4 | Cn1cc(C(=O)NC2CCN(C(=O)c3cccc(C#N)c3)CC2)cn1 [CBK305673] | 110
5 | O=C(CCN1CCCC1Cn1cncn1)NCCc1ccccc1 (stereo not shown) [CBK305677] | 92.9
6 | CC(OCc1ccccc1)C(=O)NCC1(N2CCOCC2)CCSC1 (stereo not shown) [CBK305678] | 114
7 | CC(=O)Nc1ccc(CNC(=O)c2cccnc2OCC(F)(F)F)cc1 [CBK305682] | 91.5
8 | Cn1cc(C(=O)NC2CCN(C(=O)c3ccc(C#N)cc3)CC2)cn1 [CBK305683] | 94.4
9 | Cc1cc(NC(=O)C2CCN(CCOc3ccccc3F)CC2)no1 [CBK305688] | 100
10 | CCCC(=O)Nc1ccc(OCCOC(C)(C)C)c(C(C)=O)c1 [CBK305691] | 79.8
11 | Cc1nn(CCC#N)c(C)c1CCC(=O)NCc1ccccn1 [CBK305693] | 82.5
12 | CCOC(=O)c1cnn2c(O)cc(CN3CCCc4ccccc43)nc12 [CBK305694] | 118
13 | CC(C)(C)OC(=O)N1CCC(C(=O)NCc2ccccn2)CC1 [CBK305696] | 103
14 | CCOC(=O)N1CCC(NS(=O)(=O)c2cn(C)c(=O)n(C)c2=O)CC1 [CBK305699] | 89.1
15 | CCN(Cc1ccc(C#N)cc1F)C(=O)Nc1cnn(CC)c1 [CBK305702] | 93.1
16 | COCCn1c(SCc2cn3cc(Br)ccc3n2)nc(C)c1C [CBK305704] | 83.1
17 | CCCCc1nc(CS(=O)(=O)C(C)c2nc(C(C)C)no2)cs1 (stereo not shown) [CBK305707] | 88.3
18 | Cc1cc(C)n(CCCNC(=O)Cc2csc(N3CCCC3=O)n2)n1 [CBK305708] | 94.6
19 | COC(=O)c1cc(C#N)c(=O)n(CC(O)COc2c(C)cccc2C)c1 (stereo not shown) [CBK305709] | 97.2
20 | Cc1cc(N2CCN(C(=O)CCc3ccccc3)CC2)nc(C(C)C)n1 [CBK305711] | 99.3
21 | COc1ccc(CN2CCN(C(=O)c3cccc(N(C)C)c3)CC2)cc1 [CBK305713] | 98

Row | Structure (SMILES) | viability at 28.5 h, 10 µM [%]
22 | C#CCNS(=O)(=O)c1cccc(C(=O)NC2CCN(CCOC)CC2)c1 [CBK305714] | 89
23 | COC(=O)c1cc(C#N)c(=O)n(CC(O)COCc2ccco2)c1 (stereo not shown) [CBK305718] | 94.7
24 | COc1ccc(C(=O)N2CCN(c3cnn(C)c(=O)c3Cl)CC2)cc1 [CBK305720] | 84.8
25 | Cn1cc(C(=O)OCc2cccc(S(=O)(=O)N3CCOCC3)c2)cn1 [CBK305721] | 88.1
26 | Cc1cc(C)cc(C(=O)N2CCC(NC(=O)c3cnn(C)c3)CC2)c1 [CBK305723] | 92.3
27 | Cc1cc(N2CCOCC2)ccc1NC(=O)CCOc1cccc(Cl)c1 [CBK305724] | 102
28 | CCc1nc(COC(=O)C2CCN(C(=O)c3ccc(F)cc3)CC2)cs1 [CBK305725] | 111
29 | O=C(NCCNc1cnccn1)c1cccc(Cl)c1Cl [CBK305727] | 84.9
30 | CC(=O)Nc1ccc(C(=O)NCc2ccc(OCC(F)(F)F)cc2)cc1 [CBK305732] | 98
31 | COC(=O)c1ccc(N2CCN(Cc3nc(C4CC4)no3)C(C)C2)cc1 (stereo not shown) [CBK305744] | 98
32 | CN(CCCc1cc(-c2cccc(F)c2)n[nH]1)C(=O)c1cnn(C)c1 [CBK305745] | 86.6
33 | CCc1ccc(CNC(=O)NC2CCCc3c2cnn3CCO)s1 (stereo not shown) [CBK305747] | 84.4
34 | CC(Oc1cccc(C#N)c1)C(=O)N1CCSCC1 (stereo not shown) [CBK305748] | 97
35 | CC(C)Oc1ncc(C(=O)Nc2ccc(OCCC(N)=O)cc2)cc1Cl [CBK305750] | 102
36 | Cc1noc(C)c1CN1CCC(Cc2ccccc2)CC1 [CBK305752] | 96.8
37 | Cc1nc(CNCc2c(C)nn(C)c2N2CCOCC2)cs1 [CBK305753] | 83.7
38 | Cc1cccc(NCC2CCN(Cc3cc(=O)n4ccccc4n3)C2)n1 (stereo not shown) [CBK305756] | 100
39 | COCCN(C(=O)c1ccc2ccccc2c1)C1CCS(=O)(=O)C1 (stereo not shown) [CBK305758] | 102
40 | Cc1cc(C2CCCN2C(=O)c2ccc(C(F)(F)F)nc2)on1 (stereo not shown) [CBK305761] | 88.6
41 | Cc1ccc(Cl)c(OC(C)C(=O)N2CCC(CC(N)=O)CC2)c1 (stereo not shown) [CBK305762] | 93
42 | Cc1csc(C2CN(Cc3ccn(C)c(=O)c3)CCO2)n1 (stereo not shown) [CBK305763] | 91.4

Row | Structure (SMILES) | viability at 28.5 h, 10 µM [%]
43 | Cc1cccn2c(=O)cc(CN3CCC(c4cn[nH]c4)CC3)nc12 [CBK305764] | 101
44 | Cc1nc(S(=O)(=O)N2CCC(C(=O)N3CCCCCC3)CC2)cn1C [CBK305765] | 99.3
45 | CC(C)(C)OC(=O)N1CCCC(C(=O)NC(C(N)=O)c2ccccc2)C1 (stereo not shown) [CBK305766] | 99.8
46 | CCN(Cc1cccs1)C(=O)NC1CCCc2c1cnn2CCO (stereo not shown) [CBK305768] | 81.6
47 | CCOc1ccc(C(=O)N2CC(C(N)=O)CCC2C)cn1 (stereo not shown) [CBK305770] | 102
48 | CC1CCc2c(sc3ncnc(OCC(=O)N4CCNC4=O)c23)C1 (stereo not shown) [CBK305775] | 96.1
49 | Cc1cccc(CN2CCC(NC(=O)C3(C#N)CCCC3)CC2)c1 [CBK305781] | 91.8
50 | O=C(CCc1cc(F)ccc1F)NCCCn1nc2n(c1=O)CCCC2 [CBK305782] | 97.7
51 | Cc1nc(S(=O)(=O)N2CCC(C(=O)N3CCCC3)CC2)cn1C [CBK305786] | 88.3
52 | CC1CCN(C(=O)CC(NC(N)=O)c2cccc(Br)c2)CC1 (stereo not shown) [CBK305788] | 95.3
53 | CCn1c(C)cc(C(=O)N2CCN(c3nccc(OC)n3)CC2)c1C [CBK305791] | 95.5
54 | Cc1nn(C)c2ncc(S(=O)(=O)NC(C)c3ccc(F)cc3)cc12 (stereo not shown) [CBK305793] | 93.4
55 | COc1ccc(Cl)cc1CN(C)C(=O)c1ccc(C)[nH]c1=O [CBK305794] | 92.9
56 | Cc1nc(CCNC(=O)C2CC(c3cccc(F)c3)=NO2)cs1 (stereo not shown) [CBK305798] | 106
57 | CC(=O)Nc1ccc(NCc2nc(CC(C)C)no2)c(C(F)(F)F)c1 [CBK305799] | 110
58 | COc1ccnc(N2CCN(C(=O)c3ccc(C)n3C)CC2)n1 [CBK305803] | 84.7
59 | CC1CCCN(C(=O)CC(NC(N)=O)c2cccc(Br)c2)CC1 (stereo not shown) [CBK305804] | 91.7
60 | O=C1CN(c2nc(-c3ccncc3)nc3ccccc23)CCN1 [CBK305805] | 91.9
61 | Cc1ccc(CCC(=O)N(CCC#N)C2CCOCC2)c(C)c1 [CBK305809] | 87.4
62 | CC1CCC(C(N)=O)CN1C(=O)c1csc(Br)c1 (stereo not shown) [CBK305812] | 92.3
63 | Cc1nc2n(c1C)CCN(c1ccc3nnc(C(F)(F)F)n3n1)C2 [CBK305815] | 102

Row | Structure (SMILES) | viability at 28.5 h, 10 µM [%]
64 | Cc1cc(C#N)ccc1OCC(=O)NC1CCS(=O)(=O)C1 (stereo not shown) [CBK305816] | 84.9
65 | COC(=O)c1cccn2cc(CN(CC#N)C3CC3)nc12 [CBK305821] | 105
66 | Cc1noc(C)c1CC(=O)NCc1cccc(C#N)c1 [CBK305822] | 106
67 | Cc1cc(=O)n2ncn(CC(=O)NCCOc3ccccc3)c2c1 [CBK305823] | 99.3
68 | CNS(=O)(=O)c1cccc(C(C)NC(=O)N2CCSCC2)c1 (stereo not shown) [CBK305825] | 95.1
69 | Cc1ccc(NCC2CCN(c3cc(=O)n4oc(C)cc4n3)C2)nc1 (stereo not shown) [CBK305827] | 90.1
70 | Cc1nc(C)n(CC2CCCN(Cc3nc4ccccc4o3)C2)n1 (stereo not shown) [CBK305828] | 95.3
71 | CN(Cc1ccccc1N1CCOCC1)C(=O)Cc1cn2ccsc2n1 [CBK305830] | 109
72 | COCCn1c(SC(C)C(=O)N2CCNC2=O)nc2ccccc21 (stereo not shown) [CBK305832] | 85.7
73 | COc1ccc(-c2nn(CCC#N)cc2C(=O)N2CCCCC2)cc1 [CBK305834] | 92.4
74 | COc1cccc(-c2nn(CCC#N)cc2C(N)=O)c1 [CBK305835] | 95
75 | CCN(CC(=O)NCc1ccc(F)cc1)S(=O)(=O)c1ccc(Cl)s1 [CBK305837] | 88.2
76 | Cc1nc2ncnn2c(C)c1CCC(=O)OCc1ccc(C#N)cc1 [CBK305838] | 83.7
77 | CCN(CC(=O)NCc1ccc(F)cc1)C(=O)c1ccc(C#N)cc1 [CBK305841] | 100
78 | CCN(CC)S(=O)(=O)c1ccc(C(=O)NCc2ccc(OC)cc2)cc1 [CBK305844] | 71.6
79 | CCCNC(=O)CN(C)CC(=O)Nc1sc2c(c1C#N)CCC(C)C2 (stereo not shown) [CBK305845] | 82.5
80 | CC(Nc1ccc(N2CCOCC2)cc1)C(=O)Nc1cccc(C#N)c1 (stereo not shown) [CBK305846] | 82.2
81 | CC(C)Oc1ccc(C(=O)N2CCN(c3ccccc3)CC2)cc1 [CBK305847] | 83.5
82 | Cc1nn(C)c(C)c1NC(=O)COc1ccccc1C#N [CBK305850] | 95
